# According to US9695155B2, “Herbicidal substituted pyrimidinyloxy benzene compounds” (E. I. DU PONT DE NEMOURS AND COMPANY, priority 2013, dated 2017):
# Key:
# large (Lg) crabgrass = test: Test A preemergence; assay type: in vivo, Digitaria sanguinalis
# Summary of the method: (§1)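 Compounds in non-phytotoxic solvent with surfactant applied as soil spray preemergence, or postemergence to plants 2-10 cm at one- to two-leaf stage, in loam/sand. After approximately 10 days in greenhouse, injury rated visually versus untreated controls, 0 (no effect) to 100 (complete control).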
# velvetleaf [1] = test: Test A preemergence; assay type: in vivo, Abutilon theophrasti
# Summary of the method: as §1
# corn [2] = test: Test A preemergence; assay type: in vivo, Zea mays
# Summary of the method: as §1
# barnyardgrass = test: Test A postemergence; assay type: in vivo, Echinochloa crus-galli
# Summary of the method: as §1
# giant foxtail [3] = test: Test A postemergence; assay type: in vivo, Setaria faberii
# Summary of the method: as §1
# morningglory [4] = test: Test A postemergence; assay type: in vivo, Ipomoea spp.
# Summary of the method: as §1
# corn [5] = test: Test A postemergence; assay type: in vivo, Zea mays
# Summary of the method: as §1
# Heteranthera limosa = test: Test B flooded paddy test; assay type: in vivo; settings: Flood, 250 g ai/ha; 0 to 100 scale where 0 is no effect and 100 is complete control
# Summary of the method: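 Post-emergence paddy-water application at the 2-leaf stage, with 3 cm flood kept for the whole test. Response was judged visually relative to controls after 13 to 15 greenhouse days, 0 indicating no effect and 100 complete control.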
# corn [6] = test: Test C postemergence; assay type: in vivo, Zea mays; settings: for Plant response rating (0 to 100), Corn: 16 g ai/ha, 0 is no effect, 100 is complete control; for Corn plant response rating: 31 g ai/ha; for Corn plant response rating / Plant response rating, Corn: scale 0 to 100 (0 no effect, 100 complete control)
# Summary of the method: (§2)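 Rated visually on 0–100 (100 = complete control) after 13–15 days under glass. Treatments went onto freshly seeded loam/sand soil or onto emerged plants at the 1- to 4-leaf stage, using a surfactant-containing solvent formulation.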
# giant foxtail [7] = test: Test C postemergence; assay type: in vivo, Setaria faberii; settings: for Plant response rating (0 to 100), Foxtail, Giant: 16 g ai/ha, 0 is no effect, 100 is complete control; for Foxtail, Giant plant response rating: 31 g ai/ha; for Foxtail, Giant plant response rating / Plant response rating, Foxtail, Giant: scale 0 to 100 (0 no effect, 100 complete control)
# Summary of the method: as §2
# johnsongrass = test: Test C postemergence; assay type: in vivo, Sorghum halepense; settings: for Plant response rating (0 to 100), Johnsongrass: 16 g ai/ha, 0 is no effect, 100 is complete control; for Johnsongrass plant response rating: 31 g ai/ha; for Johnsongrass plant response rating / Plant response rating, Johnsongrass: scale 0 to 100 (0 no effect, 100 complete control)
# Summary of the method: as §2
# morningglory [8] = test: Test C postemergence; assay type: in vivo, Ipomoea coccinea; settings: for Plant response rating (0 to 100), Morningglory: 16 g ai/ha, 0 is no effect, 100 is complete control; for Morningglory plant response rating: 31 g ai/ha; for Morningglory plant response rating / Plant response rating, Morningglory: scale 0 to 100 (0 no effect, 100 complete control)
# Summary of the method: as §2
# pigweed = test: Test C postemergence; assay type: in vivo, Amaranthus retroflexus; settings: for Plant response rating (0 to 100), Pigweed: 16 g ai/ha, 0 is no effect, 100 is complete control; for Pigweed plant response rating: 31 g ai/ha; for Pigweed plant response rating / Plant response rating, Pigweed: scale 0 to 100 (0 no effect, 100 complete control)
# Summary of the method: as §2
# oilseed rape = test: Test C postemergence; assay type: in vivo, Brassica napus; settings: for Plant response rating (0 to 100), Oilseed Rape: 16 g ai/ha, 0 is no effect, 100 is complete control; for Oilseed Rape plant response rating: 31 g ai/ha; for Oilseed Rape plant response rating / Plant response rating, Oilseed Rape: scale 0 to 100 (0 no effect, 100 complete control)
# Summary of the method: as §2
# waterhemp = test: Test C postemergence; assay type: in vivo, Amaranthus rudis; settings: for Plant response rating (0 to 100), Waterhemp: 16 g ai/ha, 0 is no effect, 100 is complete control; for Waterhemp plant response rating: 31 g ai/ha; for Waterhemp plant response rating / Plant response rating, Waterhemp: scale 0 to 100 (0 no effect, 100 complete control)
# Summary of the method: as §2
# velvetleaf [9] = test: Test C postemergence; assay type: in vivo, Abutilon theophrasti; settings: for Plant response rating (0 to 100), Velvetleaf: 16 g ai/ha, 0 is no effect, 100 is complete control; for Velvetleaf plant response rating: 31 g ai/ha; for Velvetleaf plant response rating / Plant response rating, Velvetleaf: scale 0 to 100 (0 no effect, 100 complete control)
# Summary of the method: as §2
# [10] = 1000 g ai/ha, 0 to 100 scale, 0 no effect, 100 complete control, approx. 10 days
# [11] = 1000 g ai/ha, 0 to 100 scale, 0 no effect, 100 complete control
# [12] = postemergence, visual rating, 13 to 15 days
# [13] = 125 g ai/ha, postemergence, visual rating
# [14] = Postemergence, 62 g ai/ha, 13 to 15 days
# [15] = 500 g ai/ha, 0 to 100 scale where 0 is no effect and 100 is complete control
# [16] = 125 g ai/ha, 0 to 100 scale where 0 is no effect and 100 is complete control
compound,measurement,setting,value
Clc1cnc(Oc2ccccc2-n2cc(Br)nn2)nc1 [Compound 223],"Crabgrass, Large plant response rating",large (Lg) crabgrass; [10],100
same,Velvetleaf plant response rating,velvetleaf [1]; [10],100
same,Corn plant response rating,corn [2]; [10],80
same,"Plant response rating, Barnyardgrass",barnyardgrass; [11],100
same,"Plant response rating, Foxtail, Giant",giant foxtail [3]; [11],90
same,"Plant response rating, Morningglory",morningglory [4]; [11],100
same,"Plant response rating, Corn",corn [5]; [11],60
same,"Plant response rating, Ducksalad",Heteranthera limosa,90
same,"Plant response rating (0 to 100), Corn",corn [6]; postemergence,5
same,Corn plant response rating,corn [6]; [12],5
same,"Plant response rating, Corn",corn [6]; [13],5
same,"Plant response rating, Corn",corn [6]; [14],5
same,"Plant response rating (0 to 100), Foxtail, Giant",giant foxtail [7]; postemergence,5
same,"Foxtail, Giant plant response rating",giant foxtail [7]; [12],5
same,"Plant response rating, Foxtail, Giant",giant foxtail [7]; [13],5
same,"Plant response rating, Foxtail, Giant",giant foxtail [7]; [14],5
same,"Plant response rating (0 to 100), Johnsongrass",johnsongrass; postemergence,0
same,Johnsongrass plant response rating,johnsongrass; [12],0
same,"Plant response rating, Johnsongrass",johnsongrass; [13],5
same,"Plant response rating, Johnsongrass",johnsongrass; [14],0
same,"Plant response rating (0 to 100), Morningglory",morningglory [8]; postemergence,5
same,Morningglory plant response rating,morningglory [8]; [12],45
same,"Plant response rating, Morningglory",morningglory [8]; [13],80
same,"Plant response rating, Morningglory",morningglory [8]; [14],70
same,"Plant response rating (0 to 100), Pigweed",pigweed; postemergence,70
same,Pigweed plant response rating,pigweed; [12],70
same,"Plant response rating, Pigweed",pigweed; [13],90
same,"Plant response rating, Pigweed",pigweed; [14],80
same,"Plant response rating (0 to 100), Oilseed Rape",oilseed rape; postemergence,10
same,Oilseed Rape plant response rating,oilseed rape; [12],50
same,"Plant response rating, Oilseed Rape",oilseed rape; [13],85
same,"Plant response rating, Oilseed Rape",oilseed rape; [14],80
same,"Plant response rating (0 to 100), Waterhemp",waterhemp; postemergence,70
same,Waterhemp plant response rating,waterhemp; [12],60
same,"Plant response rating, Waterhemp",waterhemp; [13],95
same,"Plant response rating, Waterhemp",waterhemp; [14],85
same,"Plant response rating (0 to 100), Velvetleaf",velvetleaf [9]; postemergence,30
same,Velvetleaf plant response rating,velvetleaf [9]; [12],55
same,"Plant response rating, Velvetleaf",velvetleaf [9]; [13],90
same,"Plant response rating, Velvetleaf",velvetleaf [9]; [14],80
Clc1cnc(Oc2cccc(Cl)c2-n2cc(Cl)cn2)nc1 [Compound 220],"Crabgrass, Large plant response rating (0 to 100 scale)",large (Lg) crabgrass; 125 g ai/ha,100
same,"Crabgrass, Large plant response rating",large (Lg) crabgrass; [15],100
same,Velvetleaf plant response rating (0 to 100 scale),velvetleaf [1]; 125 g ai/ha,20
same,Velvetleaf plant response rating,velvetleaf [1]; [15],70
same,Corn plant response rating (0 to 100 scale),corn [2]; 125 g ai/ha,0
same,Corn plant response rating,corn [2]; [15],10
same,Barnyardgrass plant response rating,barnyardgrass; [16],90
same,"Plant response rating, Barnyardgrass",barnyardgrass; [15],100
same,"Foxtail, Giant plant response rating",giant foxtail [3]; [16],80
same,"Plant response rating, Foxtail, Giant",giant foxtail [3]; [15],90
same,Morningglory plant response rating,morningglory [4]; [16],50
same,"Plant response rating, Morningglory",morningglory [4]; [15],100
same,Corn plant response rating,corn [5]; [16],40
same,"Plant response rating, Corn",corn [5]; [15],70
same,"Plant response rating, Ducksalad",Heteranthera limosa,100
same,"Plant response rating (0 to 100), Corn",corn [6]; postemergence,5
same,Corn plant response rating,corn [6]; [12],10
same,"Plant response rating, Corn",corn [6]; [13],10
same,"Plant response rating, Corn",corn [6]; [14],10
same,"Plant response rating (0 to 100), Foxtail, Giant",giant foxtail [7]; postemergence,0
same,"Foxtail, Giant plant response rating",giant foxtail [7]; [12],5
same,"Plant response rating, Foxtail, Giant",giant foxtail [7]; [13],5
same,"Plant response rating, Foxtail, Giant",giant foxtail [7]; [14],10
same,"Plant response rating (0 to 100), Johnsongrass",johnsongrass; postemergence,5
same,Johnsongrass plant response rating,johnsongrass; [12],0
same,"Plant response rating, Johnsongrass",johnsongrass; [13],5
same,"Plant response rating, Johnsongrass",johnsongrass; [14],5
same,"Plant response rating (0 to 100), Morningglory",morningglory [8]; postemergence,15
same,Morningglory plant response rating,morningglory [8]; [12],50
same,"Plant response rating, Morningglory",morningglory [8]; [13],50
same,"Plant response rating, Morningglory",morningglory [8]; [14],40
same,"Plant response rating (0 to 100), Pigweed",pigweed; postemergence,65
same,Pigweed plant response rating,pigweed; [12],75
same,"Plant response rating, Pigweed",pigweed; [13],90
same,"Plant response rating, Pigweed",pigweed; [14],85
same,"Plant response rating (0 to 100), Oilseed Rape",oilseed rape; postemergence,50
same,Oilseed Rape plant response rating,oilseed rape; [12],65
same,"Plant response rating, Oilseed Rape",oilseed rape; [13],90
same,"Plant response rating, Oilseed Rape",oilseed rape; [14],85
same,"Plant response rating (0 to 100), Waterhemp",waterhemp; postemergence,65
same,Waterhemp plant response rating,waterhemp; [12],70
same,"Plant response rating, Waterhemp",waterhemp; [13],85
same,"Plant response rating, Waterhemp",waterhemp; [14],75
same,"Plant response rating (0 to 100), Velvetleaf",velvetleaf [9]; postemergence,30
same,Velvetleaf plant response rating,velvetleaf [9]; [12],50
same,"Plant response rating, Velvetleaf",velvetleaf [9]; [13],60
same,"Plant response rating, Velvetleaf",velvetleaf [9]; [14],65
